Reference: US20100190694A1, “Methods for identifying patients who will respond well to cancer treatment” (priority 2009, published 2010)

Tested on: advanced solid tumors
Experiment: Phase I study: efficacy by RECIST, treatment duration, TTP
Format: in vivo, human
Settings: Pat 101-6, esophageal adenoca, before study
From the text: Phase I dose-escalation, multi-center study with the objectives to assess: • maximum tolerated dose and dose limiting toxicities (DLT) of Bel in combination with FU • impact of Bel on expression of TS, dihydropyrimidine dehydrogenase (DPD), and p21, in tumor and non-tumor surrogate tissue (peripheral blood mononuclear cells; PBMC) • preliminary anti-tumor activity of Bel in combination with FU • impact of Bel on ECG parameters • pharmacokinetics (PK) of Bel when given in combination with FU
Treatment cycles of 21 days included Bel alone in cycle 1, and Bel in combination with FU in all subsequent cycles (FIG. 4). Treatment was to continue until significant treatment-related toxicity or progressive disease. […]
DLTs, i.e. grade ¾ non-hematologic toxicities and grade 4 neutropenia or thrombocytopenia, were determined in cycles 1 and 2. Safety was assessed by NCI CTC (v. 3) and efficacy by RECIST criteria. Expression of TS, DPD, and p21 mRNA was measured by RTQ-PCR in PBMC (20 patients at baseline, and pre-dosing, 6 and 24-hours post-dosing, on days 1 and 4 in cycle 1) and in tumor biopsies (8 patients at baseline and once on days 4 or 5 in cycle 1). Results were expressed as gene expression relative to actin (i.e. TS/Actin Relative Gene Expression, DPD/Actin Relative Gene Expression, and p21/Actin Relative Gene Expression).

SMILES: CC(=O)O[C@H]1C(=O)[C@@]2(C)[C@H]([C@H](OC(=O)c3ccccc3)[C@]3(O)C[C@H](OC(=O)[C@H](O)[C@@H](NC(=O)c4ccccc4)c4ccccc4)C(C)=C1C3(C)C)[C@]1(OC(C)=O)CO[C@@H]1C[C@@H]2O [paclitaxel]
- TTP on most recent prior line of therapy: (12.0 weeks)
